Laboratory results taken from patent US20110217324A1, “INHIBITORS OF ANTIGEN PRESENTATION BY MHC CLASS II MOLECULES AND METHODS OF USE THEREOF” (priority 2007, published 2011).
Numbered stars: 1 amine (or outer) side, 2 acyl side, 3 side chain; on linkers, the order of the positions; unused ones are H or OH. Square brackets hold non-standard residues; d marks the D form. Peptide text beside a SMILES is read from it. * marks the point of attachment. X2 = O=C([C@H](Cc1cccc2[nH]cnc12)N[*:1])[*:2]; Phe(4-F) = N[C@@H](Cc1ccc(F)cc1)C(=O)O; Bta = N[C@@H](Cc1csc2ccccc12)C(=O)O; Tic = O=C(O)[C@@H]1Cc2ccccc2CN1; Chg = N[C@H](C(=O)O)C1CCCCC1; NHPhenethyl = c1ccc(CCN*)cc1; Tle = CC(C)(C)[C@H](N)C(=O)O; X3 = c1cc2cc(CCN*)ccc2[nH]1; X6 = c1ccc2[nH]c(CCN*)cc2c1; Morpholide = C1CN(*)CCO1; βAla = NCCC(=O)O; Sar = CNCC(=O)O

Assays:
DR molecules = settings: cited from earlier work
T cell proliferation = settings: cited from earlier work
[1] = tested on: animal models of autoimmune disease; settings: in vivo; cited from earlier work
[2] = molecular target: T1, MHC DR2 (DRB1*1501/DRA*0101) (Homo sapiens, UniProt P01903+P01911); test: HLA II Binding Assay (competition with biotinylated reference peptide); settings: purified HLA-DR, biotinylated reference compound for DRB1*1501, 37° C. 24 h to 72 h; read-out: Inhibition of peptide binding IC50 (against MHC DR2 (DRB1*1501/DRA*0101))
T1 construct: endogenous in cells; host or cells: EBV homozygous (B lymphoblastoid) cell lines
Experimental: EBV homozygous cell lines are used as sources of human HLA class II molecules. […] The supernatant from lysed cells after centrifugation (100,000 g for 1 h) is applied to Sepharose 4B and protein A-Sepharose 4B columns and then to the specific antibody column. […] Fractions are immediately neutralized to pH 7 with 2 mM Tris-HCl (pH 6.8) and extensively dialyzed against 1 mM n-dodecyl β-D-maltoside, 150 mM NaCl, 10 mM phosphate (pH 7) buffer.
Samples (100 μl per well) are incubated in 96-wells polypropylene plates at 37° C. for 24 h to 72 h. After neutralization with 50 μl of 450 mM Tris HCl pH 7.5, 0.003% thimerosal, 0.3% BSA, 1 mM n-dodecyl β-D-maltoside buffer, samples are applied to 96-well maxisorp ELISA plates previously coated with 10 μg/ml L243 Mab and saturated with 100 mM Tris HCl pH=7.5, 0.3% BSA, and 0.003% thimerosal buffer. Samples are allowed to bind to the antibody-coated plates for 2 h at room temperature. Bound biotinylated compound is detected by incubating streptavidin-alkaline phosphatase conjugate, and after washings, by the addition of 4-methylumbelliferyl phosphate substrate. […] Maximal binding is determined by incubating the biotinylated peptide with the MHC class II molecule in the absence of competitor. Binding specificity is assessed by adding an excess of non-biotinylated peptide.

DRB1*1501 = DRB1*1501 (Homo sapiens, UniProt P01903+P01911); settings: DR2 haplotype; cited from earlier work
DRB5*0101 = DRB5*0101 (Homo sapiens, UniProt P01903+Q30154); settings: DR2 haplotype; cited from earlier work

Compound | IC50 [2] | also measured
a(Cha)AAAKTAAAAa-NH2 | – | binding to DR molecules (DR molecules): binds DR molecules; suppression of T cell proliferation in response to protein antigens (T cell proliferation): did not supress T cell proliferation; activity in animal models of autoimmune disease [1]: did not show activity
MBP (84-102): immunodominant myelin basic protein (84-102) peptide (DPGSRPHLIRLFSRDAPGR; Myelin basic protein; UniProt P02686 84-102, looked up, fragment) | – | binding affinity to DRB1*1501 molecules (DRB1*1501): bind with high affinity; binding affinity to DRB5*0101 molecules (DRB5*0101): bind with high affinity
CC(=O)N[C@H](C(=O)N[C@H](C(=O)N[C@@H](C)C(=O)N1Cc2ccccc2C[C@H]1C(=O)N[C@@H](Cc1ccccc1)C(N)=O)C1CCCCC1)C(C)C [AcV(Chg)A(Tic)F] (Ac-V[Chg]A[Tic]F-NH2) | 10 to 100 nM | –
CC(=O)N[C@H](C(=O)N[C@H](C(=O)N[C@@H](CCCNC(=N)N)C(=O)N1Cc2ccccc2C[C@H]1C(=O)N[C@@H](Cc1ccccc1)C(N)=O)C1CCCCC1)C(C)(C)C [Ac(t-BuG)(Chg)R(Tic)F] (Ac-[Tle][Chg]R[Tic]F-NH2) | 1 to 10 nM | –
CC(C)[C@H](NC(=O)[C@@H](N)Cc1csc2ccccc12)C(=O)N[C@H](C(=O)N[C@@H](CCCNC(=N)N)C(=O)N1Cc2ccccc2C[C@H]1C(=O)N[C@@H](Cc1ccccc1)C(N)=O)C1CCCCC1 [(NH2-BTA)V(Chg)R(Tic)F] (H-[Bta]V[Chg]R[Tic]F-NH2) | 10 to 100 nM | –
CNCC(=O)N[C@H](C(=O)N[C@H](C(=O)N[C@@H](CCCNC(=N)N)C(=O)N1Cc2ccccc2C[C@H]1C(=O)N[C@@H](Cc1ccccc1)C(N)=O)C1CCCCC1)C(C)C [(NH2-Sar)V(Chg)R(Tic)F] (H-[Sar]V[Chg]R[Tic]F-NH2) | 1 to 10 nM | –
CC(C)[C@H](NC(=O)CCN)C(=O)N[C@H](C(=O)N[C@@H](Cc1ccccc1)C(=O)N[C@@H](Cc1ccccc1)C(=O)N[C@@H](Cc1ccccc1)C(N)=O)C1CCCCC1 [(NH2-Beta Ala)V(Chg)FFF] (H-[βAla]V[Chg]FFF-NH2) | 100 to 1000 nM | –
CO[C@H](C)[C@H](NC(C)=O)C(=O)N[C@H](C(=O)N[C@@H](CCCNC(=N)N)C(=O)N1Cc2ccccc2C[C@H]1C(=O)N[C@@H](Cc1ccccc1)C(N)=O)C1CCCCC1 [Ac(T(OMe))(Chg)R(Tic)F] (Ac-T(Me)[Chg]R[Tic]F-NH2) | 1 to 10 nM | –
CC(=O)N[C@H](C(=O)N[C@H](C(=O)N[C@@H](CCCNC(=N)N)C(=O)N1Cc2ccccc2C[C@H]1C(=O)NCCc1cc2ccccc2[nH]1)C1CCCCC1)C(C)C [AcV(Chg)R(Tic)(2-ethylaminoindole)] (Ac-V[Chg]R[Tic]-X6) | 100 to 1000 nM | –

Second part, led by results:

IC50 [2] | Compound | also measured
100 to 1000 nM | CC(=O)N[C@H](C(=O)N[C@H](C(=O)N[C@@H](CCCNC(=N)N)C(=O)N1Cc2ccccc2C[C@H]1C(=O)NCCc1ccc2[nH]ccc2c1)C1CCCCC1)C(C)C [AcV(Chg)R(Tic)(5-ethylaminoindole)] (Ac-V[Chg]R[Tic]-X3) | –
10 to 100 nM | CC(=O)N[C@H](C(=O)N[C@H](C(=O)N[C@@H](CCCNC(=N)N)C(=O)N1Cc2ccccc2C[C@H]1C(=O)N[C@@H](Cc1ccccc1)C(=O)N1CCOCC1)C1CCCCC1)C(C)C [AcV(Chg)R(Tic)F-CO(morpholine)] (Ac-V[Chg]R[Tic]F-Morpholide) | –
10 to 100 nM | CC(=O)N[C@H](C(=O)N[C@H](C(=O)N[C@@H](CCCNC(=N)N)C(=O)N1Cc2ccccc2C[C@H]1C(=O)N[C@@H](Cc1cccc2[nH]cnc12)C(N)=O)C1CCCCC1)C(C)C [AcV(Chg)R(Tic)(4-benzimidazole)] (Ac-V[Chg]R[Tic][X2]-NH2) | –
1 to 10 nM | CC(=O)N[C@H](C(=O)N[C@H](C(=O)N[C@@H](CCCNC(=N)N)C(=O)N1Cc2ccccc2C[C@H]1C(=O)N[C@@H](Cc1ccc(F)cc1)C(N)=O)C1CCCCC1)C(C)C [AcV(Chg)R(Tic)(4′-F Phe)] (Ac-V[Chg]R[Tic][Phe(4-F)]-NH2) | –
10 to 100 nM | CNC(=O)[C@H](Cc1ccccc1)NC(=O)[C@@H]1Cc2ccccc2CN1C(=O)[C@H](CCCNC(=N)N)NC(=O)[C@@H](NC(=O)[C@@H](NC(C)=O)C(C)C)C1CCCCC1 [AcV(Chg)R(Tic)F-CONHMe] (Ac-V[Chg]R[Tic]F-NHMe) | –
100 to 1000 nM | CC(=O)N[C@H](C(=O)N[C@H](C(=O)N[C@@H](CCCNC(=N)N)C(=O)N1Cc2ccccc2C[C@H]1C(=O)NCCc1ccccc1)C1CCCCC1)C(C)C [AcV(Chg)R(Tic)(phenethylamide)] (Ac-V[Chg]R[Tic]-NHPhenethyl) | –
